Measurements from article PMC9978856 (Acta Pharmaceutica Sinica. B, 2022).

How the values were obtained:
CYP1A [1] = system: CYP1A
[2] = CYP1A1/2 KO compared with WT group; caffeine 5 mg/kg by gavage
CES1 = conditions: cited from earlier work
Ldlr KO rats = experiment: Lan treatment of Ldlr KO rats; assay type: in vivo, rat; conditions: Lan 50 mg/kg/day p.o. for 21 days
[3] = system: food-borne hypercholesteremia rat model; experiment: Lan treatment in food-borne hypercholesteremia rat model; assay type: in vivo
CYP1A [4] = conditions: Lan 50 mg/kg/day for 7 days; cited from earlier work
[5] = RLM of KO rats compared with WT rats
[6] = HCD + Lan 10 group (10 mg/kg/day, 11 weeks) vs HCD + Sol group
[7] = HCD + Lan 50 group (50 mg/kg/day, 11 weeks) vs HCD + Sol group

Cn1c(=O)c2c(ncn2C)n(C)c1=O [caffeine]
Km of caffeine metabolism in RLM (CYP1A [1]; KO versus WT rats RLM): remained unchanged | decrease of CLint of caffeine (CYP1A [1]; [5]): 50% | decrease of Vmax of 3-demethylation caffeine formation (CYP1A [1]; [5]): 38% | increase of AUC of caffeine [2]: 200%

C[C@@H](CO)CCC[C@@H](C)[C@H]1CC[C@H]2[C@@H]3CC=C4C[C@@H](O)CC[C@]4(C)[C@H]3CC[C@]12C [27-hydroxycholesterol]
inhibitory effect on CES1 (CES1): strong selective inhibitory effect

CC(C)CCC[C@@H](C)[C@H]1CC[C@H]2[C@@H]3CC=C4C[C@@H](O)CC[C@]4(C)[C@H]3CC[C@]12C [cholesterol]
inhibitory effect on CES1 (CES1): no inhibitory effect

Cc1c(OCC(F)(F)F)ccnc1C[S+]([O-])c1nc2ccccc2[nH]1 (centres unmarked) [Lan, Lansoprazole]
lipids in serum, including TG, LDL-C, HDL-C, and T-C (Ldlr KO rats): remained unchanged | liver lipidosis (HE staining) (Ldlr KO rats): significantly alleviated | CYP1A protein expression in the liver (Ldlr KO rats; Western blot): significantly induced | decrease of serum LDL-C content [3, 6]: 40% | decrease of serum TG concentration [3, 6]: 27% | increase of HDL-C/LDL-C ratio [3, 6]: 170% | reduction of serum T-C content [3, 6]: 39% | decrease of serum LDL-C content [3, 7]: 65% | decrease of serum TG concentration [3, 7]: 42% | increase of HDL-C/LDL-C ratio [3, 7]: 200% | reduction of serum T-C content [3, 7]: 47% | serum transaminases ([3]; HCD-fed rats, Lan treatment, 11 weeks): reduced serum transaminases to physiological levels | lipid accumulation in liver (oil red O staining) ([3]; both 10 and 50 mg/kg Lan groups vs HCD + Sol group, 11 weeks): less than that in the HCD + Sol group | increase of the metabolic activity of CYP1A in rats (CYP1A [4]): 4 times
